Test [1] concerns normal endometrial stromal cells (MAD11). In words: MTT cell viability assay, MAD11 cells. In kind it is cell-based, human. Particulars: MAD11 non-cancerous cells, n = 3 biological replicates, read-out: Mean IC50 (μM) MAD11 ± SD. As to the method:
(§1) The cytotoxic effects of the synthesized salt compounds were assessed against human endometrial cancer cells (HEC1A) and normal endometrial stromal cells (MAD11) using the MTT cell viability assay. BH10 was used as the reference compound.
(§2) Reagents and equipment: phosphate-buffered saline (PBS) (Sigma Aldrich, St. Louis, MO, USA), 10× Trypsin-EDTA solution (Sigma Aldrich, 59418C), Dulbecco’s Modified Eagle’s Medium (Sigma Aldrich), foetal bovine serum (FBS), and 100× penicillin-streptomycin solution (Sigma Aldrich P4333). The MTT reagent was prepared by dissolving 5 mg/mL MTT powder in sterile PBS, followed by filtration, whereas the MTT solvent contained 4 mM HCl and 0.1% Nonidet P-40 in isopropanol. Dimethyl sulfoxide (DMSO) was also sourced from Sigma Aldrich. Absorbance measurements were acquired using Kaleido 1.0 software coupled with an EnSight™ HH3400 Multimode Plate Reader (PerkinElmer, Waltham, MA, USA). HEC-1-A endometrial cancer cells were obtained from ATCC, while MAD11 endometrial stromal cells were provided by Dr. Hui Li (University of Virginia). MAD11 cells, derived from non-cancerous donors, were immortalized via human telomerase reverse transcriptase (hTERT).
(§3) Method: The methods were adapted from Byrne et al. (2014). Cells were cultured in DMEM supplemented with 10% FBS and 1% Pen-Strep solution (100 U/mL penicillin and 0.1 mg/mL streptomycin). Upon reaching ~70% confluence, the cells were washed with sterile PBS and detached using a 1× trypsin-EDTA solution. The cells were then resuspended in culture media, counted, and seeded into sterile 96-well tissue culture plates (2500 cells per well for MAD11; 5000 cells per well for HEC-1-A). The cells were incubated at 37 °C with 5% CO2 for 24 h prior to drug treatment. Drugs were serially diluted in culture medium to final concentrations of 100, 50, 25, 12.5, 6.3, 3.1, 1.6, and 0.8 µM per well and applied in triplicate. For compounds 7a–f and 15, as their IC₅₀ values were below 0.8 µM, an additional set of three biological replicates was conducted using a lower concentration range (500, 250, 125, 63, 31, 16, 8, and 4 nM). To minimize variations due to DMSO (vehicle), both drug dilutions and control wells received the same final concentration of DMSO. After 48 h of incubation at 37 °C with 5% CO2, cell viability was assessed by adding 20 µL/well of MTT reagent for 3 h. Supernatants were aspirated, and formazan crystals were dissolved in MTT solvent before absorbance was measured at 590/620 nm using an EnSight™ HH3400 Multimode Plate Reader. Cell viability was expressed as a percentage of the vehicle (DMSO-treated) control, with results reported as mean ± SEM from three independent experiments. IC50 values were determined using GraphPad Prism 9.

In test [2] the test system is human endometrial cancer cells (HEC1A). In words: MTT cell viability assay, HEC1A cells. In kind it is cell-based. Particulars: for IC50: HEC1A cells, MTT, 48 h, n = 3 biological replicates, read-out: Mean IC50 (μM) HEC1A ± SD; for Selectivity Ratio: IC50 value from MAD11 cells divided by the IC50 value from HEC1A cells. How it is done:
as §1, §2, §3

Where two headings read alike, the source gives them in different places.

For orientation: IC50 means the midpoint of a concentration-inhibition curve.

As for `Cc1n(C)c2c([n+]1C)C(=O)c1ccccc1C2=O.[I-]` [Compound 15, 1,2,3-Trimethyl-4,9-dioxo-4,9-dihydro-1H-naphtho [2,3-d]imidazol-3-ium iodide], the 50% inhibitory concentration (IC50) in test [1] (48 h) stood at 0.154 ± 0.0109 µM. In test [2], the IC50 worked out at 0.0135 ± 0.0009 µM and the “Selectivity Ratio” value is reported as 11.43.
In the case of `C[N+]1(CCNC2=CC(=O)c3ccccc3C2=O)CCOCC1.[I-]` [Compound 2a, 4-(2-((1,4-Dioxo-1,4-dihydronaphthalen-2-yl)amino)ethyl)-4-methylmorpholin-4-ium iodide], the IC50 is greater than 100 µM in test [1] (Homo sapiens, MAD11, 48 h) and 21.1 ± 2.99 µM in test [2] (Homo sapiens, HEC-1-A). Besides, the “Selectivity Ratio” value in test [2] is recorded as greater than 4.73.
The corresponding values for `C[N+]1(CCn2cc(Cn3c(C(F)(F)F)nc4c3C(=O)c3ccccc3C4=O)nn2)CCOCC1.[I-]` [Compound 17a, 4-(2-(4-((4,9-Dioxo-2-(trifluoromethyl)-4,9-dihydro-1H-naphtho [2,3-d]imidazol-1-yl)methyl)-1H-1,2,3-triazol-1-yl)ethyl)-4-methylmorpholin-4-ium iodide] are 111 ± 45 µM, 11.2 ± 2.63 µM and 9.93.
Consider `Cn1c[n+](C)c2ccccc21` [Compound 13, 1,3-Dimethyl-1H-benzo[d]imidazol-3-ium iodide], for which the IC50 was greater than 100 µM in test [1] (Homo sapiens, MAD11, 48 h) and greater than 100 µM in test [2] (Homo sapiens, HEC-1-A).
`C[N+](C)(C)CCNC1=C(Cl)C(=O)c2ccccc2C1=O` [Compound 2c, 2-((3-Chloro-1,4-dioxo-1,4-dihydronaphthalen-2-yl)amino)-N,N,N-trimethylethan-1-aminium iodide]: the IC50 in test [1] (Homo sapiens, MAD11, 48 h) was greater than 100 µM; in test [2] (Homo sapiens, HEC-1-A), 97.2 ± 8.2 µM.
For the compound `C[N+]1(CCCNC2=CC(=O)c3ccccc3C2=O)CCCCC1` [Compound 2b, 1-(3-((1,4-Dioxo-1,4-dihydronaphthalen-2-yl)amino)propyl)-1-methylpiperidin-1-ium iodide], the half-inhibitory concentration (IC50) in test [1] (Homo sapiens, MAD11, 48 h) is greater than 100 µM; in test [2] (Homo sapiens, HEC-1-A) it was greater than 100 µM.
Turning to `Cc1n(C)c2c([n+]1C)C(=O)c1cc([N+](=O)[O-])ccc1C2=O.[Br-]` [Compound 7c, 1,2,3-Trimethyl-6-nitro-4,9-dioxo-4,9-dihydro-1H-naphtho [2,3-d]imidazol-3-ium bromide], the IC50 in test [1] (Homo sapiens, MAD11, 48 h) was 0.0685 ± 0.0061 µM; in test [2] (Homo sapiens, HEC-1-A), 0.0288 ± 0.0014 µM. In addition, the “Selectivity Ratio” value in test [2] turned out to be 2.37.
On to `Cc1n(C)c2c([n+]1C)C(=O)c1ccncc1C2=O.[Br-]` [Compound 7f, 1,2,3-Trimethyl-4,9-dioxo-4,9-dihydro-3H-imidazo [4,5-g]isoquinolin-1-ium bromide], for which the IC50 in test [1] (Homo sapiens, MAD11, 48 h) came to 4.8 ± 0.327 µM; in test [2] (Homo sapiens, HEC-1-A), 0.472 ± 0.0378 µM. Moreover, the “loss in potency relative to 7a” value in test [2] (Figure 3, SAR summary) is on record as ~ 50 fold. Also, the “Selectivity Ratio” value in test [2] came out at 10.16.
As for `Cc1nc2c(n1CCC[N+]1(C)CCCCC1)C(=O)c1ccccc1C2=O.[I-]` [Compound 19, 1-Methyl-1-(3-(2-methyl-4,9-dioxo-4,9-dihydro-1H-naphtho [2,3-d]imidazol-1-yl)propyl) piperidin-1-ium iodide], the half-inhibitory concentration (IC50) worked out at 40.8 ± 14.1 µM in test [1] (Homo sapiens, MAD11, 48 h) and 6.35 ± 1.41 µM in test [2] (Homo sapiens, HEC-1-A). Besides, in test [2], the “Selectivity Ratio” value turned out to be 6.42.
On to `COc1ccc2c(c1)C(=O)c1c(n(C)c(C)[n+]1C)C2=O` [Compound 7d, 6-Methoxy-1,2,3-trimethyl-4,9-dioxo-4,9-dihydro-1H-naphtho [2,3-d]imidazol-3-ium bromide], for which the IC50 in test [1] (Homo sapiens, MAD11, 48 h) is 0.194 ± 0.0191 µM; in test [2] (Homo sapiens, HEC-1-A), 0.0256 ± 0.0021 µM.
Regarding `CC1=C(NCC[N+]2(C)CCOCC2)C(=O)c2ccccc2C1=O` [Compound 2h, 4-Methyl-4-(2-((3-methyl-1,4-dioxo-1,4-dihydronaphthalen-2-yl)amino)ethyl)morpholin-4-ium iodide], the IC50 in test [1] (Homo sapiens, MAD11, 48 h) is greater than 100 µM; in test [2] (Homo sapiens, HEC-1-A), 95.5 ± 14.7 µM.
Regarding `C[N+]1(CCCn2cc(Cn3c(C(F)(F)F)nc4c3C(=O)c3ccccc3C4=O)nn2)CCCCC1.[I-]` [Compound 17c, 1-(3-(4-((4,9-Dioxo-2-(trifluoromethyl)-4,9-dihydro-1H-naphtho [2,3-d]imidazol-1-yl)methyl)-1H-1,2,3-triazol-1-yl)propyl)-1-methylpiperidin-1-ium iodide], the concentration for half-maximal inhibition (IC50) in test [1] (Homo sapiens, MAD11, 48 h) is greater than 100 µM; in test [2] (Homo sapiens, HEC-1-A) it was 5.62 ± 1.43 µM. Further, the “Selectivity Ratio” value in test [2] is reported as greater than 17.79.
With `Cc1n(C)c2ccccc2[n+]1C` [Compound 11, 1,2,3-Trimethyl-1H-benzo[d]imidazol-3-ium iodide], the concentration for half-maximal inhibition (IC50) in test [1] (Homo sapiens, MAD11, 48 h) is greater than 100 µM; in test [2] (Homo sapiens, HEC-1-A) it was greater than 100 µM.
`C[N+]1(CCNC2=C(Br)C(=O)c3ccccc3C2=O)CCOCC1.[I-]` [Compound 2g, 4-(2-((3-Bromo-1,4-dioxo-1,4-dihydronaphthalen-2-yl)amino)ethyl)-4-methylmorpholin-4-ium iodide]: the concentration for half-maximal inhibition (IC50) in test [1] (Homo sapiens, MAD11, 48 h) is greater than 100 µM; in test [2] (Homo sapiens, HEC-1-A), 23.8 ± 4.17 µM. Also, the “Selectivity Ratio” value in test [2] is on record as greater than 4.20.
For `C[N+]1(CCn2cc(Cn3c(C(F)(F)F)nc4c3C(=O)c3ccccc3C4=O)nn2)CCCCC1.[I-]` [Compound 17b, 1-(2-(4-((4,9-Dioxo-2-(trifluoromethyl)-4,9-dihydro-1H-naphtho [2,3-d]imidazol-1-yl)methyl)-1H-1,2,3-triazol-1-yl)ethyl)-1-methylpiperidin-1-ium iodide], in that order: greater than 100 µM, 6.79 ± 1 µM and greater than 14.73.
Regarding `C[N+](C)(C)CCCNC1=C(Cl)C(=O)c2ccccc2C1=O` [Compound 2e, 3-((3-Chloro-1,4-dioxo-1,4-dihydronaphthalen-2-yl)amino)-N,N,N-trimethylpropan-1-aminium iodide], the IC50 in test [1] (Homo sapiens, MAD11, 48 h) was greater than 100 µM; in test [2] (Homo sapiens, HEC-1-A), greater than 100 µM.
On to `Cc1n(C)c2c([n+]1C)C(=O)c1c(cccc1[N+](=O)[O-])C2=O.[Br-]` [Compound 7b, 1,2,3-Trimethyl-5-nitro-4,9-dioxo-4,9-dihydro-1H-naphtho [2,3-d]imidazol-3-ium bromide], for which the IC50 in test [1] (Homo sapiens, MAD11, 48 h) is 0.952 ± 0.215 µM; in test [2] (Homo sapiens, HEC-1-A) it was 0.023 ± 0.0033 µM. Further, the “Selectivity Ratio” value in test [2] amounted to 41.43.
With `Cc1ccc2c(c1)C(=O)c1c([n+](C)c(C)n1C)C2=O` [Compound 7e, 1,2,3,7-Tetramethyl-4,9-dioxo-4,9-dihydro-1H-naphtho [2,3-d]imidazol-3-ium bromide], the IC50 stood at 0.101 ± 0.0124 µM in test [1] (Homo sapiens, MAD11, 48 h) and 0.0149 ± 0.0012 µM in test [2] (Homo sapiens, HEC-1-A).
`C[N+]1(CCNC2=C(Cl)C(=O)c3ccccc3C2=O)CCCCC1.[I-]` [Compound 2d, 1-(2-((3-Chloro-1,4-dioxo-1,4-dihydronaphthalen-2-yl)amino)ethyl)-1-methylpiperidin-1-ium iodide]: the half-inhibitory concentration (IC50) was greater than 100 µM in test [1] (Homo sapiens, MAD11, 48 h) and 58.8 ± 3.01 µM in test [2] (Homo sapiens, HEC-1-A). In test [2], the “Selectivity Ratio” value is listed as greater than 1.70.
Turning to `C[N+]1(CCCNC2=C(Cl)C(=O)c3ccccc3C2=O)CCOCC1` [Compound 2f, 4-(3-((3-Chloro-1,4-dioxo-1,4-dihydronaphthalen-2-yl)amino)propyl)-4-methylmorpholin-4-ium iodide], the IC50 in test [1] (Homo sapiens, MAD11, 48 h) is greater than 100 µM; in test [2] (Homo sapiens, HEC-1-A) it was greater than 100 µM.
Turning to `Cc1n(C)c2cc3ccccc3cc2[n+]1C.[I-]` [Compound 9, 1,2,3-Trimethyl-1H-naphtho [2,3-d]imidazol-3-ium iodide], the IC50 is 64.6 ± 14 µM in test [1] (Homo sapiens, MAD11, 48 h); 23.9 ± 2.97 µM in test [2]; 24.9 µM in test [2] (Homo sapiens, HEC-1-A). Moreover, the “Selectivity Ratio” value in test [2] is on record as 2.70.
On to `Cc1n(C)c2c([n+]1C)C(=O)c1ccccc1C2=O.[Br-]` [Compound 7a, 1,2,3-Trimethyl-4,9-dioxo-4,9-dihydro-1H-naphtho [2,3-d]imidazol-3-ium bromide], for which the IC50 in test [1] (48 h) came to 0.0657 ± 0.00641 µM; in test [2] (Homo sapiens, HEC-1-A), 0.00953 ± 0.0007 µM. Moreover, the “Selectivity Ratio” value in test [2] is recorded as 6.89.

Source of the values: PMC12073298, “Design, Synthesis, and Biological Evaluation of Naphthoquinone Salts as Anticancer Agents” (Molecules, 2025).
